Legend:
[1] = test system: Blood monocytes from ApoE-/- mice (CD11b+); test: Transwell migration assay, blood monocytes; assay type: cell-based; settings: 10 ng/ml in lower chamber, 2 hours, vs buffer alone
Procedure: (§1) Monocyte cell migration was quantified in 24-well transwell inserts with polycarbonate filters (8-μm pore size) (Corning Costar). THP-1 monocytes (0.5×10^4 in 100 μl of RPMI 1640 medium) or murine blood cells from ApoE^-/- mice (25 μl in 75 μl of RPMI 1640 medium) were added to the upper chamber of the insert. The lower chamber contained 600 μl of RPMI 1640 with or without 10ng/ml tcOPN or OPN protein. The plates were incubated at 37° C. in 5% CO2 during 2 hours and migrated cells in the lower chamber were counted using flow cytometry. Blood monocytes were characterized with the monocyte FACS panel described above. In blocking experiment, tcOPN protein were pre-incubated with plasma (dilution 1:100) pooled from PADRE ctrl mice or tcOPN-PADRE mice over night at 4° C. prior to the migration experiment.

[2] = test system: human monocyte THP-1 cells; test: Transwell migration assay, THP-1; assay type: cell-based; settings: 10 ng/ml in lower chamber, 2 hours, vs buffer alone or full-length OPN
Procedure: as §1

ApoE-/- mice [3] = test: Atherosclerotic plaque area: en face descending aorta, aortic arch, subvalvular lesions; assay type: in vivo; settings: additional early study, short peptide, HFD 8 weeks
Text: Female C57BL/6 Apoe^-/- mice (Jaxmice, USA) were immunized with tcOPN-PADRE or equal amounts of PADRE peptide using Alum (Pierce) as adjuvant, followed by two booster injections after two and five weeks (FIG. 1B). During the advanced study all mice received a final booster one weak prior to termination in order to analyze the effect on immune cells (FIG. 1B). Mice were fed a high-fat diet (HFD), 21% cocoa fat, 0.15% cholesterol, starting one week after the last booster injection. For early assessment of atherosclerosis mice were kept on HFD during 8 weeks before sacrifice. Mice that were allowed to develop a more advanced stage of atherosclerosis were kept on HFD during 15 weeks (FIG. 1B). For early atherosclerosis assessment two different lengths of immunized tcOPN-PADRE peptides (SEQ ID Nos: 6 and 7) were evaluated, while for advanced atherosclerosis assessment mice were immunized with shorter tcOPN-PADRE (SEQ ID No: 6) which was based on a tcOPN of 11 amino acids (SEQ ID NO: 4). Tissue was preserved as described previously. […] Cytokine levels for IL-1β, IL-2, IL-4, IL-5, IL-6, IL-10, IL-13, IL-17, IL-12(p70), IFNγ, TNFα and MCP-1 were analyzed in plasma using Bioplex multiplex technology (Bio-Rad) according to manufacturer's protocol. Plasma levels for OPN and tcOPN were analyzed by ELISA according to manufacturer's protocol (IBL International). […]

[4] = test system: tcOPN-PADRE peptide, PADRE peptide, tcOPN protein or OPN protein; test: Antibody ELISA on plasma of immunized mice; assay type: in vivo; settings: plasma of immunized ApoE-/- mice
Procedure: tcOPN-PADRE peptide, PADRE peptide, tcOPN protein or OPN protein was used for coating (20 μg/mL of each in PBS) microtiter plates (Nunc MaxiSorp, Nunc) over night at 4° C. Coated plates were washed with PBS with 0.05% Tween-20 and thereafter blocked with SuperBlock in Tris-buffered saline (TBS, Pierce) during 30 minutes at room temperature (RT) followed by an incubation of mouse plasma diluted 1:100 or 1:1000 in PBS-0.05% Tween-20 for 2 hours at RT. After rinsing, bound antibodies were detected using biotinylated goat anti-mouse IgGla or IgG2 antibodies (Jackson ImmunoResearch) that were incubated for 2 hours at RT. After washing, alkaline phosphatase-conjugated streptavidin (Sigma) was added and color reaction was developed using phosphatase substrate kit (Pierce). The absorbance (405 nm) was measured after 1 hour of incubation at room temperature. Mean values were calculated after subtraction of background absorbance.

ApoE-/- mice [5] = test: Plasma cytokine levels (Bioplex multiplex) in immunized ApoE-/- mice on HFD; assay type: in vivo; settings: mean ± SD
Text: Female C57BL/6 Apoe^-/- mice (Jaxmice, USA) were immunized with tcOPN-PADRE or equal amounts of PADRE peptide using Alum (Pierce) as adjuvant, followed by two booster injections after two and five weeks (FIG. 1B). During the advanced study all mice received a final booster one weak prior to termination in order to analyze the effect on immune cells (FIG. 1B). Mice were fed a high-fat diet (HFD), 21% cocoa fat, 0.15% cholesterol, starting one week after the last booster injection. For early assessment of atherosclerosis mice were kept on HFD during 8 weeks before sacrifice. Mice that were allowed to develop a more advanced stage of atherosclerosis were kept on HFD during 15 weeks (FIG. 1B). For early atherosclerosis assessment two different lengths of immunized tcOPN-PADRE peptides (SEQ ID Nos: 6 and 7) were evaluated, while for advanced atherosclerosis assessment mice were immunized with shorter tcOPN-PADRE (SEQ ID No: 6) which was based on a tcOPN of 11 amino acids (SEQ ID NO: 4). Tissue was preserved as described previously. All animal experiments were approved by the Animal Care and Use Committee. Cytokine levels for IL-1β, IL-2, IL-4, IL-5, IL-6, IL-10, IL-13, IL-17, IL-12(p70), IFNγ, TNFα and MCP-1 were analyzed in plasma using Bioplex multiplex technology (Bio-Rad) according to manufacturer's protocol. Plasma levels for OPN and tcOPN were analyzed by ELISA according to manufacturer's protocol (IBL International). Plasma cholesterol was quantified colorimetrically using Infinity Cholesterol (ThermoTrace).

Question: For “tcOPN: recombinant OPN cleaved with thrombin, C-terminal fragment removed (SLAYGLR)”, which “Monocyte migration towards the protein” value [1] is on record?
Answer: The value was “increased migration”.

Question: What about the “Monocyte migration towards the protein” value [2] of the same substance?
Answer: The value was “increased migration”.

Question: Which results are given for “AKFVAAWTLKAAAGRGDSLAYGLR (PADRE-tcOPN short) [short tcOPN-PADRE peptide]”?
Answer: Plaque area in the aortic arch, en face preparations (ApoE-/- mice [3]): smaller plaque area; Subvalvular plaque area (ApoE-/- mice [3]): recapitulated the difference

Question: For AKFVAAWTLKAAA (PADRE), which “Antibodies (IgG) against the tcOPN-PADRE peptide” value [4] is on record?
Answer: The value was “did not develop antibodies”.

Question: And the “Antibodies recognizing PADRE peptide” value [4]?
Answer: Its value is “low levels”.

Question: And the “Plasma IFNγ” value (ApoE-/- mice [5]; 8 week HFD)?
Answer: Its value is 312 ± 225 pg/mL.

Question: What about the “Plasma IL-2” value (ApoE-/- mice [5]; 8 week HFD) of the same substance?
Answer: The value was 45 ± 15 pg/mL.

Question: What about the “Plasma IL-5” value (ApoE-/- mice [5]; 8 week HFD) of the same substance?
Answer: The value was 111 ± 56 pg/mL.

Question: What about the “Plasma IL-6” value (ApoE-/- mice [5]; 8 week HFD) of the same substance?
Answer: Its value is 33 ± 35 pg/mL.

Question: What about the “Plasma IL-10” value (ApoE-/- mice [5]; 8 week HFD) of the same substance?
Answer: The value was 77 ± 32 pg/mL.

Question: And the “Plasma IL-13” value (ApoE-/- mice [5]; 8 week HFD)?
Answer: The value was 234 ± 129 pg/mL.

Question: What about the “Plasma IL-17” value (ApoE-/- mice [5]; 8 week HFD) of the same substance?
Answer: Its value is 162 ± 62 pg/mL.

Question: What about the “Plasma TNFα” value (ApoE-/- mice [5]; 8 week HFD) of the same substance?
Answer: Its value is 26 ± 0 pg/mL.

Question: What about the “Plasma MCP-1” value (ApoE-/- mice [5]; 8 week HFD, * significant difference PADRE vs tcOPN-PADRE) of the same substance?
Answer: Its value is 835 ± 187 pg/mL.

Question: What about the “Plasma IFNγ” value (ApoE-/- mice [5]; 15 week HFD) of the same substance?
Answer: The value was 48 ± 24 pg/mL.

Question: And the “Plasma IL-2” value (ApoE-/- mice [5]; 15 week HFD)?
Answer: The value was 43 ± 21 pg/mL.

Question: And the “Plasma IL-4” value (ApoE-/- mice [5]; 15 week HFD)?
Answer: The value was 21 ± 7 pg/mL.

Question: What about the “Plasma IL-5” value (ApoE-/- mice [5]; 15 week HFD) of the same substance?
Answer: Its value is 110 ± 32 pg/mL.

Question: What about the “Plasma IL-6” value (ApoE-/- mice [5]; 15 week HFD) of the same substance?
Answer: Its value is 28 ± 11 pg/mL.

Question: What about the “Plasma IL-10” value (ApoE-/- mice [5]; 15 week HFD) of the same substance?
Answer: The value was 172 ± 64 pg/mL.

Question: And the “Plasma IL-13” value (ApoE-/- mice [5]; 15 week HFD)?
Answer: Its value is 1153 ± 439 pg/mL.

Question: And the “Plasma IL-17” value (ApoE-/- mice [5]; 15 week HFD)?
Answer: Its value is 148 ± 27 pg/mL.

Question: What about the “Plasma MCP-1” value (ApoE-/- mice [5]; 15 week HFD) of the same substance?
Answer: Its value is 703 ± 386 pg/mL.

Question: What about the “Plasma TNFα” value (ApoE-/- mice [5]; 15 week HFD) of the same substance?
Answer: The value was 712 ± 249 pg/mL.

From patent US20180289780A1, “OSTEOPONTIN AND THROMBIN-CLEAVED FRAGMENT THEREOF AND THEIR USE IN ATHEROSCLEROSIS PREVENTION, INFLAMMATION REDUCTION AND IMPROVING PLAQUE STABILITY” (CardioVax, LLC, priority 2017, published 2018)
